Series [1] deals with T1, Saccharomyces cerevisiae (yeast) α-glucosidase (Saccharomyces cerevisiae, UniProt P53341).
T1 construct: purchased Sigma Chemical Co., St. Louis City, MO, USA
In words: α-Glucosidase inhibitory activity determination (pNPG substrate). The class given is biochemical. Conditions: for inhibition at 7.81 µg/mL: read-out: Maximum Inhibition (%), recorded at 7.81 μg/mL. The procedure:
The α-glucosidase inhibitory activity was closely detected following the method described in detail by Nguyen et al. (2018). The mixture of 50 μL α-glucosidase, 50 μL sample solutions, 100 μL buffer was pre-incubated at 37 °C for 20 min; the reaction then started when 50 μL of p-nitrophenyl glucopyranoside (10 mmol/L) was added to the mixture. After incubation at the same temperature for 30 min, the reaction was stopped by adding 100 μL Na2CO3 solution (1 mol/L) to the reaction mixture; the absorbance of this final mixture was then measured at 410 nm (A). The control group also underwent the same described method with the use of 50 μL buffer instead of 50 μL sample solutions; the absorbance was recorded at 410 nm (B). The aGI activity (%) was calculated using the following equation: aGI (%) = (A − B)/ A × 100.
The inhibition was also expressed as IC50 value determined as per the previous study. The enzyme and the samples were prepared in 0.1 mol/L potassium phosphate buffer (pH 7). […]

Series [2] deals with ICR mice. In words: Starch tolerance test: effect on reducing plasma glucose in ICR mice. Type of series: in vivo, mouse. Conditions: oral. The source says: Animals: seven week-old male ICR (Institute of Cancer Research) mice were purchased from The National Laboratory Animal Center (No. 128, Sec. 2, Academia Rd., Nangang Dist., Taipei City 11529, Taiwan) and tested in accordance with the approval and guidelines of the Institutional Animal Care and Use Committee of the National Research Institute of Chinese Medicine, Ministry of Health and Welfare (IACUC No. 104-706-1, 29 December 2014). […] Distilled water was used to prepare the condensed tannins and acarbose solutions.
Assay: The effect of condensed tannin-ELCTB-3.1.1 on the reduction of plasma glucose in mice was performed according to the experimental animal protocol described by Nguyen et al. (2017) with the use of starch solution (3 g/kg bw) instead of sucrose solution administered to ICR mice.

Setting [3] is: read-out: Maximum Inhibition (%), recorded at 250 μg/mL.
The mark [4] stands for this setting: read-out: α-glucosidase inhibition, aGI (%), primary test of 26 isolated compounds at 250 µg/mL (Figure 2).
Where [5] appears, read: IC50, isolated compounds (Table 3).
Setting [6] is: isolated compounds (Table 3), read-out: IC50 (converted).

Like-named read-outs stand apart in the source and are kept apart here.

T1 sequence (P53341 whole entry): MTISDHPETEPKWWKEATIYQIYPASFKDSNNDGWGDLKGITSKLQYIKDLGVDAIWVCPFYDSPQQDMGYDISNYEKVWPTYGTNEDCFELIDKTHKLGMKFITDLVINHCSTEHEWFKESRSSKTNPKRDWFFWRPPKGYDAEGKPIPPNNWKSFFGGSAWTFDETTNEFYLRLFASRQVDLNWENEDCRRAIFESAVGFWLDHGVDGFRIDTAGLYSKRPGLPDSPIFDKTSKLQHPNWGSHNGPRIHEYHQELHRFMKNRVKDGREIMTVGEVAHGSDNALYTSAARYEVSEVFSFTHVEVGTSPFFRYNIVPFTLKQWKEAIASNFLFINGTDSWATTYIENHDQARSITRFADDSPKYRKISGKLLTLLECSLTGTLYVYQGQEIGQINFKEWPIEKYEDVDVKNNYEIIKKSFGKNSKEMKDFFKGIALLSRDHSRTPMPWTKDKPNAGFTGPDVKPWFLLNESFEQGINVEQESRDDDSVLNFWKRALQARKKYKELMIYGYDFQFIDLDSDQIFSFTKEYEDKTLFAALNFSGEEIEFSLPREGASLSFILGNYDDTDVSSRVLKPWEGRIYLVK

Regarding `C[C@H]1O[C@H](O[C@H]2[C@H](O)[C@@H](O)[C@@H](O[C@H]3[C@H](O)[C@@H](O)C(O)O[C@@H]3CO)O[C@@H]2CO)[C@H](O)[C@@H](O)[C@@H]1N[C@H]1C=C(CO)[C@@H](O)[C@H](O)[C@H]1O` (stereo partly shown) [Acarbose, reference compound], the inhibition at 2500 µg/mL turned out to be 65 ± 2.7% in series [1] (read-out: Maximum Inhibition (%), acarbose, recorded at 2500 μg/mL (Table 3)) and 64 ± 2.4% in series [1] (read-out: α-Glucosidase Inhibitory Activity Inhibition (%), yeast α-glucosidase, acarbose tested at 2500 μg/mL (Table 2)). The “mice with symptoms of diarrhea” value amounted to 20% in series [2] (acarbose 25 mg/kg bw) and 50% in series [2] (acarbose 50 mg/kg bw).

On to `CC1=CC(=O)OCC1O[C@@H]1O[C@H](CO)[C@@H](O)[C@H](O)[C@H]1O` (stereo partly drawn) [Compound 1, Walterolactone A/B β-D-pyranoglucoside], for which, in series [1], the IC50 (usually the point on the concentration scale where inhibition reaches its midpoint) was 3.12 µM and the inhibition at 7.81 µg/mL was 100 ± 5.8%.

For `COc1cc(O[C@@H]2O[C@H](CO)[C@@H](O)[C@H](O)[C@H]2O)cc(OC)c1O` [Compound 9, 1-β-D-glucopyranosyloxy-3,5-dimethoxy-4-hydroxybenzene], the inhibition at 250 µg/mL was not above 38% in series [1] (setting [3]) and 38 to 60% in series [1] (setting [4]).

`Oc1cc(O)c2c(c1)O[C@@H](c1cc(O)c(O)c(O)c1)[C@H](O)C2` [Compound 10, (−)-Gallocatechin]: the IC50 in series [1] (setting [5]) is 38.9 µM. The inhibition at 250 µg/mL in series [1] (setting [3]) came to 93 ± 2.9%.

For `O=C(c1ccc(O)cc1)C(O)CO[C@@H]1O[C@H](CO)[C@@H](O)[C@H](O)[C@H]1O` (stereo partly drawn) [Compound 11, Schweinfurthinol 9-O-β-D-pyranoglucoside], in series [1], the half-maximal inhibitory concentration (IC50) was 91.8 µM. The figures for the inhibition at 250 µg/mL in series [1] (setting [3]) and in series [1] (setting [4]) were 87 ± 4% and 90 to 100%, respectively.

In the case of `CC(C)=CC(=O)O[C@@H]1[C@H](O)[C@H](O)[C@@H](O)[C@H](O)[C@H]1O` [Compound 12, 1-O-(3-methyl)-butenoyl-myo-inositol], the IC50 in series [1] (setting [6]) was 103 µM. Also, the inhibition at 250 µg/mL in series [1] (setting [3]) was determined as 96 ± 6.9%.

`COc1cc(O)cc(OC)c1O[C@@H]1O[C@H](CO)[C@@H](O)[C@H](O)[C@H]1O` [Compound 14, Leonuriside]: the IC50 in series [1] (setting [6]) was 2.79 µM. In addition, in series [1], the inhibition at 7.81 µg/mL is 99 ± 6.4%.

As for `Oc1cc(O)c2c(c1)O[C@H](c1ccc(O)c(O)c1)[C@@H](O)C2` [Compound 19, (+)-Catechin], the IC50 in series [1] (setting [6]) was 0.389 µM. The inhibition at 0.977 µg/mL in series [1] (read-out: Maximum Inhibition (%), recorded at 0.977 μg/mL) was found to be 100 ± 5.9%.

In turn, `COC(=O)c1cc(O)c(O)c(O)c1` [Compound 20, Methyl galloate] had an IC50 in series [1] (setting [5]) of 597 µM. The inhibition at 250 µg/mL in series [1] (setting [3]) came out at 58 ± 1.2%.

Consider `Oc1cc(O)c2c(c1)O[C@@H](c1ccc(O)c(O)c1)[C@H](O)C2` [Compound 23, (−)-Catechin], for which, in series [1] (setting [3]), the inhibition at 250 µg/mL was not above 38%.

These data come from paper PMC6222451, “Novel Potent Hypoglycemic Compounds from Euonymus laxiflorus Champ. and Their Effect on Reducing Plasma Glucose in an ICR Mouse Model” (Molecules : A Journal of Synthetic Chemistry and Natural …, 2018).
